Measured values taken from patent US5087620A, “Controlled dermal penetration enhancement using imidazoles” (Bristol-Myers Squibb Co., priority 1990, dated 1992).

Legend:
volar forearms [1] = assay: Vasoconstriction assay of Examples 3, 4 and 5 versus DIPROSONE and KENALOG (Example 6); format: in vivo, human
Procedure: (§1) Equal amounts of each coded test medication (approximately 10 mg) were applied to 2cm^2 sites on the volar forearms and left in place, unoccluded, for 8 hours. Vasoconstriction was assessed by grading the degree of blanching on a 4-point scale (none, mild, moderate, marked) at each test site at 4, 8, 10, 12 and 24 hours after application. Statistical analysis of the area under the curve (AUC) was conducted by ranking the AUC scores within each subject and performing an analysis of variance on the ranks (Friedman Test).

[2] = In vitro skin penetration study, excised human skin, Franz diffusion cells (Example 1A-1C); format: in vitro ADME
Procedure: Normal excised human skin samples obtained from breast reduction were used. Appropriate size specimens were frozen on the microtome with carbon dioxide and sectioned to a layer around 200 micrometers thick and stored in normal saline at 5° C. The skin sections were mounted on 9 mm inside diameter flat-top Franz diffusion cells. The diffusional cross-sectional area of the skin was 0.636 cm^2. A 50 microliter sample of a test formulation was placed on the skin in the donor compartment and the receiver compartment was filled with about 5 ml of normal saline (with pH adjusted to 4 with citric acid) and was well stirred. Water at 37.4° C. was circulated throughout the water jacket of the diffusion cell. A 100 microliter sample was withdrawn from the receiver compartment at appropriate intervals and analyzed for drug content by HPLC. The receptor fluid was replenished with normal saline after each withdrawal. All the receptor fluid and replenished fluid were thoroughly degassed before use.

volar forearms [3] = assay: Vasoconstriction (skin blanching) assay, double-blind within subject study (Example 2); format: in vivo, human; details: inclusion of dermal penetration controlling amount of SNO3, PG and IPM
Procedure: as §1

forearms of humans = details: general rule; depends on vehicle and concentration; cited from earlier work

Row | Compound | topical potency class (vasoconstriction assay) (forearms of humans) | further results
1 | CC1(C)O[C@@H]2C[C@H]3[C@@H]4CCC5=CC(=O)C=C[C@]5(C)[C@@]4(F)[C@@H](O)C[C@]3(C)[C@]2(C(=O)CO)O1 [TACA, triamcinolone acetonide] | mid-potency | potency class of TACA with SNO3, PG and IPM (volar forearms [1]; inclusion of SNO3, PG and IPM): high potency; TACA concentration needed for high potency in comparison to Kenalog cream (0.1% TACA) (volar forearms [1]; with SNO3, PG and IPM): three fold lower; penetration through the entire skin thickness (extent) [2]: only a small amount; potency class of TACA with SNO3, PG and IPM (volar forearms [3]): high potency steroid
2 | C[C@H]1C[C@H]2[C@@H]3CCC4=CC(=O)C=C[C@]4(C)[C@@]3(F)[C@@H](O)C[C@]2(C)[C@@]1(O)C(=O)CO [betamethasone] | high potency | 
3 | C[C@H]1C[C@H]2[C@@H]3CCC4=CC(=O)C=C[C@]4(C)[C@@]3(F)[C@@H](O)C[C@]2(C)[C@@]1(O)C(=O)CCl [clobetasol] | ultra high potency | 
4 | C[C@]12CCC(=O)C=C1CC[C@@H]1[C@@H]2[C@@H](O)C[C@@]2(C)[C@H]1CC[C@]2(O)C(=O)CO [hydrocortisone] | low potency | 
5 | C[C@H]1C[C@@H]2[C@H]([C@@H](O)C[C@@]3(C)[C@H]2CC[C@]3(O)C(=O)CO)[C@@]2(C)C=CC(=O)C=C12 [methylprednisolone] | low potency | 
6 | C[C@]12C=CC(=O)C=C1CC[C@@H]1[C@@H]2[C@@H](O)C[C@@]2(C)[C@H]1CC[C@]2(O)C(=O)CO [prednisolone] | low potency | 
